{
  "source": "patent US9422283B2",
  "about": "“Salts and polymorphs of a substituted imidazopyridinyl-aminopyridine compound” (ArQule, Inc., priority 2014, dated 2016)",
  "assay_type_in_all_cases": "physicochemical",
  "key": {"[1]": {"experiment": "Gravimetric Vapor Sorption (GVS)", "description": "Sorption isotherms were obtained using a SMS DVS Intrinsic moisture sorption analyzer, controlled by DVS Intrinsic Control software v1.0.0.30. The sample temperature was maintained at 25° C. by the instrument controls. The humidity was controlled by mixing streams of dry and wet nitrogen, with a total flow rate of 200 ml/min. The relative humidity was measured by a calibrated Rotronic probe (dynamic range of 1.0-100% RH), located near the sample. The weight change, (mass relaxation) of the sample as a function of % RH was constantly monitored by the microbalance (accuracy ±0.005 mg).\nTypically 5-20 mg of sample was placed in a tared mesh stainless steel basket under ambient conditions. The sample was loaded and unloaded at 40% RH and 25° C. (typical room conditions). A moisture sorption isotherm was performed as outlined below (4 scans giving 2 complete cycles). The standard isotherm was performed at 25° C. at 10% RH intervals over a 0-90% RH range. Data analysis was undertaken in Microsoft Excel using DVS Analysis Suite v6.0.0.7.\nThe sample was recovered after completion of the isotherm and re-analysed by XRPD. 7.2. Dynamic Vapour Sorption (DVS)"}, "[2]": {"experiment": "Storage stability of free base and salts (XRPD, IC, 1H NMR pre- and post-storage)"}, "[3]": {"experiment": "Aqueous solubility studies of bis-mesylate forms (slurry in deionised water, HPLC, XRPD)", "conditions": "about 24 hours; for polymorphic form after slurrying in deionised water (XRPD): ambient temperature", "description": "Purity and concentration analyses were carried out using the following method:\n• Pan Number 186003045 Column Temperature: 25° C. Autosampler Temperature: 5° C. Detection: 226 nm Mobile Phase A: 95:5:0.1% Water:Methanol:TFA Mobile Phase B: 95:5:0.1% Methanol:Water:TFA Gradient: See table below for conditions Flow Rate: 1.0 mL/minute Injection Volume: 10 μl Analysis Time: 36 minutes Re-equilibration Time: 4 minutes Data Collection time: 36 minutes Needle Wash: 100% Methanol\nSlurries of Form A, Form B, Form C, Form D, Form E and Form I were created in deionised water and shaken for about 24 hours at ambient temperature (about 22° C.). The resulting solutions were then analyzed by HPLC and the aqueous solubility was determined. The remaining solids were analyzed by XRPD to determine if any form changes had occurred during slurrying."}, "[4]": {"experiment": "Dynamic Vapour Sorption (DVS)", "description": "Approximately 10 mg of sample was placed into a mesh vapour sorption balance pan and loaded into a DVS-1 dynamic vapour sorption balance by Surface Measurement Systems. The sample was subjected to a ramping profile of 0-90%, 90-0% relative humidity (RH) at 10% increments for anhydrous samples and 30-90%, 90-0%, 0-90%, 90-0% for hydrated samples, maintaining the sample at each step until a stable weight had been achieved (99.5% step completion). The weight changes during the sorption/desorption cycles were plotted, allowing the hygroscopic nature of the sample to be determined."}, "[5]": {"experiment": "Stability testing of bis-mesylate forms for 1 week (XRPD, HPLC purity)", "description": "Form A, Form B, Form C, Form D, Form E and Form I were exposed to environments of 40° C./75% RH, ambient light (about 22° C.) and elevated temperature (80° C.) for 1 week to determine the stability. The resulting solids were analyzed by XRPD to establish if any form changes had occurred and by HPLC to determine purity."}, "[6]": {"experiment": "Thermodynamic aqueous solubility", "description": "Aqueous solubility was determined by suspending sufficient compound in water to give a maximum final concentration of ≧10 mg/ml of the parent free-form of the compound. The suspension was equilibrated at 25° C. for 24 hours then the pH was measured. The suspension was then filtered through a glass fiber C filter. The filtrate was then diluted by an appropriate factor e.g., 101. Quantitation was by HPLC with reference to a standard solution of approximately 0.25 mg/ml in DMSO. Different volumes of the standard, diluted and undiluted sample solutions were injected. The solubility was calculated using the peak areas determined by integration of the peak found at the same retention time as the principal peak in the standard injection.\nAnalysis was performed on an Agilent HP1100 series system equipped with a diode array detector and using ChemStation software vB.02.01-SR1."}},
  "note": "Entries after “also recorded” stand apart in the source; their conditions may differ. Structures can show the parent of a compound that is named as a salt.",
  "data": [
    {"smiles": "Nc1ncccc1-c1nc2ccc(-c3ccccc3)nc2n1-c1ccc(C2(N)CCC2)cc1", "note": "[Form 1, 3-(3-(4-(1-aminocyclobutyl)phenyl)-5-phenyl-3H-imidazo[4,5-b]pyridin-2-yl)pyridin-2-amine]", "values": [
      {"measurement": "water uptake (GVS)", "setting": "[1]; 0-90% RH", "result": "< 0.8 %, w/w"},
      {"measurement": "water absorption upon storage", "setting": "[1]; FIG. 5 GVS isotherm", "result": "Minimal water absorption"},
      {"measurement": "stability under storage", "setting": "[2]; 25° C. and 0-96% RH, XRPD", "result": "stable"},
      {"measurement": "polymorphic form change on storage", "setting": "[2]; 40° C. and 75% RH, one week, XRPD", "result": "transformed to Form 2"}
    ]},
    {"smiles": "Nc1ncccc1-c1nc2ccc(-c3ccccc3)nc2n1-c1ccc(C2(N)CCC2)cc1", "note": "[Form A, 3-(3-(4-(1-aminocyclobutyl)phenyl)-5-phenyl-3H-imidazo[4,5-b]pyridin-2-yl)pyridin-2-amine]", "values": [
      {"measurement": "polymorphic form after slurrying in deionised water (XRPD)", "setting": "[3]", "result": "converted to Form E"},
      {"measurement": "solubility at 24 h", "setting": "[3]; deionised water, 22 °C, water, thermodynamic from solid, deionised water, ambient temperature (about 22° C.), read-out: aqueous solubility (HPLC concentration analysis)", "result": "~383", "unit": "mg/mL"},
      {"measurement": "DVS (summary Table 21)", "setting": "[4]", "result": "Moderately"},
      {"measurement": "DVS desorption behaviour / hysteresis", "setting": "[4]", "result": "No significant hysteresis"},
      {"measurement": "hygroscopicity (DVS)", "setting": "[4]", "result": "moderate hygroscopicity"},
      {"measurement": "polymorphic form after DVS analysis (XRPD)", "setting": "[4]", "result": "consistent with Form A; also recorded: Form A post"},
      {"measurement": "DVS water uptake", "setting": "[4]; up to 70% RH", "result": "about 2.4%"},
      {"measurement": "HPLC purity after stability test", "setting": "[5]; 40° C./75% RH", "result": "about 99.8%"},
      {"measurement": "polymorphic form after stability test (XRPD)", "setting": "[5]; 40° C./75% RH", "result": "No change"},
      {"measurement": "HPLC purity after stability test", "setting": "[5]; 80° C.", "result": "about 99.8%"},
      {"measurement": "polymorphic form after stability test (XRPD)", "setting": "[5]; 80° C.", "result": "No change"},
      {"measurement": "polymorphic form after stability test (XRPD)", "setting": "[5]; ambient light (about 22° C.)", "result": "No change"},
      {"measurement": "HPLC purity after stability test", "setting": "[5]; ambient temperature", "result": "about 99.7%"}
    ]},
    {"smiles": "Nc1ncccc1-c1nc2ccc(-c3ccccc3)nc2n1-c1ccc(C2(N)CCC2)cc1", "note": "[Form B, 3-(3-(4-(1-aminocyclobutyl)phenyl)-5-phenyl-3H-imidazo[4,5-b]pyridin-2-yl)pyridin-2-amine]", "values": [
      {"measurement": "polymorphic form after slurrying in deionised water (XRPD)", "setting": "[3]", "result": "converted to Form E"},
      {"measurement": "DVS (summary Table 21)", "setting": "[4]", "result": "Gradual uptake"},
      {"measurement": "DVS desorption behaviour / hysteresis", "setting": "[4]", "result": "gradual loss from 90% down to 0% RH"},
      {"measurement": "HPLC purity after stability test", "setting": "[5]; 40° C./75% RH", "result": "about 99.8%"},
      {"measurement": "polymorphic form after stability test (XRPD)", "setting": "[5]; 40° C./75% RH", "result": "converted to Form J"},
      {"measurement": "HPLC purity after stability test", "setting": "[5]; 80° C.", "result": "about 99.8%"},
      {"measurement": "polymorphic form after stability test (XRPD)", "setting": "[5]; 80° C.", "result": "Form I"},
      {"measurement": "polymorphic form after stability test (XRPD)", "setting": "[5]; ambient light (about 22° C.)", "result": "remained unchanged"},
      {"measurement": "HPLC purity after stability test", "setting": "[5]; ambient temperature", "result": "about 99.7%"}
    ]},
    {"smiles": "Nc1ncccc1-c1nc2ccc(-c3ccccc3)nc2n1-c1ccc(C2(N)CCC2)cc1", "note": "[Compound A free base, 3-(3-(4-(1-aminocyclobutyl)phenyl)-5-phenyl-3H-imidazo[4,5-b]pyridin-2-yl)pyridin-2-amine]", "values": [
      {"measurement": "solubility in water (qualitative)", "setting": "[6]", "result": "insoluble in water"}
    ]},
    {"smiles": "Nc1ncccc1-c1nc2ccc(-c3ccccc3)nc2n1-c1ccc(C2(N)CCC2)cc1", "note": "[Compound A mesylate salt, 3-(3-(4-(1-aminocyclobutyl)phenyl)-5-phenyl-3H-imidazo[4,5-b]pyridin-2-yl)pyridin-2-amine]", "values": [
      {"measurement": "solubility at 5 min", "setting": "[6]; water, 25 °C, thermodynamic from solid, in 5 min, pH 2.1", "result": "> 50", "unit": "mg/mL"},
      {"measurement": "change in XRPD after GVS", "setting": "[1]", "result": "No change in XRPD after GVS"},
      {"measurement": "change after storage", "setting": "[2]; 40° C. and 75% RH, 7 days, XRPD and 1H NMR", "result": "No change in XRPD or ^1H NMR"}
    ]},
    {"smiles": "Nc1ncccc1-c1nc2ccc(-c3ccccc3)nc2n1-c1ccc(C2(N)CCC2)cc1", "note": "[Compound A HCl salt, 3-(3-(4-(1-aminocyclobutyl)phenyl)-5-phenyl-3H-imidazo[4,5-b]pyridin-2-yl)pyridin-2-amine]", "values": [
      {"measurement": "solubility at 24 h", "setting": "[6]; water, 25 °C, thermodynamic from solid, pH 1.2, max conc. 50 mg/ml", "result": 8.3, "unit": "mg/mL"},
      {"measurement": "GVS water uptake", "setting": "[1]; partial run, from 40-90% RH", "result": "partial run: ~18 wt % water uptake"},
      {"measurement": "HCl content by IC after storage", "setting": "[2]; 40° C. and 75% RH, 7 days, 2.2 equi. HCl before storage", "result": "IC converted to 1.6 equi. HCl"}
    ]},
    {"smiles": "Nc1ncccc1-c1nc2ccc(-c3ccccc3)nc2n1-c1ccc(C2(N)CCC2)cc1", "note": "[Compound A tris-HCl salt, 3-(3-(4-(1-aminocyclobutyl)phenyl)-5-phenyl-3H-imidazo[4,5-b]pyridin-2-yl)pyridin-2-amine]", "values": [
      {"measurement": "solubility in water (qualitative)", "setting": "[6]", "result": "highly soluble in water"},
      {"measurement": "change of salt under storage", "setting": "[2]; stability study under storage, XRPD", "result": "partially transformed to bis-HCl salt and/or mono-HCl salt"}
    ]}
  ]
}
